Test results taken from patent US12521379B2, “Use of FK506 for the treatment of pulmonary arterial hypertension” (The Board of Trustees of the Leland Stanford Junior …, priority 2011, dated 2026).

B1: BMP4: bone morphogenetic protein 4, used as a positive control (protein, UniProt P12644 293-408, looked up)
Bone morphogenetic protein 4: SPKHHSQRARKKNKNCRRHSLYVDFSDVGWNDWIVAPPGYQAFYCHGDCPFPLADHLNSTNHAIVQTLVNSVNSSIPKACCVPTELSAISMLYLDEYDKVVLKNYQEMVVEGCGCR

Key:
[1] = tested on: WBC count, nuclear NFATc2; assay: Immunosuppressive effect at low dose: WBC count and nuclear NFATc2; assay type: in vivo; conditions: low dose of 0.2 ng/ml
[2] = tested on: mice with a conditional deletion in BMPRII in ECs (BMPRII-SCL-CreERT); assay: Prevention of PAH in mice with conditional deletion of BMPRII in ECs, 3 weeks of hypoxia; assay type: in vivo, mouse; conditions: 0.05 mg/kg/d, 3-week preventive treatment, 3 weeks of hypoxia, n=5
Description: (§1) 3600 FDA approved drugs and bioactive compounds were screened for their ability to activate BMP signaling, using a C2C12 mouse myoblast cell line stably transfected with a reporter plasmid expressing a BMP response element (BRE) from the Id1 promoter fused to the luciferase-gene (BRE-luc). Whether the best qHTS-BMPRII activator can induce Smad phosphorylation (phospho), Id1 expression and promote PAEC survival and tube formation was determined using BMP4 as a positive control. Whether the qHTS-BMPRII-activator would prevent PAH in mice with a conditional deletion in BMPRII in ECs (BMPRII-SCL-CreERT) that develop exaggerated PAH after 3 weeks of hypoxia (10% O2) was determined. In order to assess whether the BMPRII activator could also reverse PAH, we used 2 models of severe experimental PH in rats: 1. Monocrotaline induced pulmonary hypertension with development of severe medial hypertrophy of the pulmonary arteries 3 weeks after injection. 2. SUGEN (VEGF-Receptor blocker) and 3-week chronic hypoxia induced pulmonary hypertension with development of neointima formation in pulmonary arteries 8 weeks after initiation of the stimulus. Both groups were treated with FK-506 for 3 weeks via sc osmotic pump (0.05 mg/kg/d) after PAH and remodeling of the pulmonary arteries was established. The serum level of FK-506 in mice and rats was aimed to be 0.2 ng/ml.

[3] = as above; assay type: in vivo, mouse; conditions: mouse, serum, 0.05 mg/kg/day; mice, 0.05 mg/kg/d; read-out: serum levels
Description: as §1

[4] = tested on: SUGEN and chronic hypoxia induced pulmonary hypertension; assay: Reversal of SUGEN and 3-week chronic hypoxia induced pulmonary hypertension in rats; assay type: in vivo, rat; conditions: n=4
Description: as §1

[5] = tested on: monocrotaline induced pulmonary hypertension; assay: Reversal of monocrotaline induced pulmonary hypertension in rats; assay type: in vivo, rat
Description: as §1

PAECs [6] = assay: PAEC survival; assay type: cell-based; conditions: n=5, p<0.001
Description: as §1

[7] = tested on: PAECs harvested from IPAH patients; assay: p-Smad 1/5/8 and Id1 expression in PAECs harvested from IPAH patients; assay type: cell-based, human; conditions: PAECs from six different IPAH patients at the time of transplant
Description: as §1

PAECs [8] = assay: Tube formation in an angiogenesis assay; assay type: cell-based; conditions: n=3, p<0.01
Description: as §1

[9] = 3-week sc treatment at established PAH

Molecule | immunosuppressive effect of decreased nuclear NFATc2 [1] | total or differential WBC count [1] | RV systolic pressure [2] | RVH (right ventricular hypertrophy) [2] | concentration at 3 weeks [3] | RVH [4, 9] | RVSP [4, 9] | Neointima formation in small pulmonary arteries per total vessel number ([4]; alveolar wall and alveolar duct vessels) | survival ([5]; after 3-week treatment started 3 weeks after monocrotaline 60 mg s.c.) | RVSP ([5]; surviving rats after 3-week treatment, n=14) | survival of PAECs (PAECs [6]) | Id1 expression [7] | p-Smad 1/5/8 [7] | tube formation (PAECs [8])
C=CC[C@@H]1/C=C(\C)C[C@H](C)C[C@H](OC)[C@H]2O[C@@](O)(C(=O)C(=O)N3CCCC[C@H]3C(=O)O[C@H](/C(C)=C/[C@@H]3CC[C@@H](O)[C@H](OC)C3)[C@H](C)[C@@H](O)CC1=O)[C@H](C)C[C@@H]2OC [FK-506] | nor was an immunosuppressive effect of decreased nuclear NFATc2 measured | no effect | 21±2.3 mmHg | 26.9±4.5 | 0.2 ng/mL | 0.34±0.02 | 39.5±0.6 mmHg | 16.2±5.8% | 57% | 39.5±4.7 mmHg |  |  |  | 
B1 |  |  |  |  |  |  |  |  |  |  | improved survival | 3/6 patients that did not respond | 3/6 patients that did not respond | induced tube formation
